Results taken from ChEMBL document CHEMBL3507680, “University of Dundee, Gates Library screen for HepG2 cell viability”.

assay: Human HepG2 cell viability assay in 384 well format; type: toxicity, cell-based; parameters: dose 125 nL, time 70.5 hour; concentration not given beside the values; conditions: HepG2 cells, read-out: Inhibition

Row | Compound | cytotoxicity at 70.5 h [%]
1 | CC1CN(C)CCN1C(=O)c1cccn1Cc1cccs1 (configuration not stated) | -8.42
2 | CCN(Cc1ccoc1)C(=O)Nc1ccccc1CN1CCOCC1 | 7.89
3 | CC(C)(C)CN(CCO)C(=O)Nc1cccc(N2CCNC2=O)c1 | -4.71
4 | CC(C)(C)CN(CCC#N)C(=O)Nc1cccc(N2CCNC2=O)c1 | -10.7
5 | COc1ccc(CCCC(=O)N2CCCC(n3cncn3)C2)cc1 (configuration not stated) | -2.82
6 | COc1ccc(C2CCN(CCCC#N)CC2)cc1 | 27.7
7 | CNC(=O)c1sc(C(NC(=O)c2ccccc2)C2CC2)nc1C (configuration not stated) | -4.95
8 | CCSc1cc(C(=O)NC(C)c2cccc(N3CCOC3=O)c2)ccn1 (configuration not stated) | 16.4
9 | CC(NC(=O)c1ccc2c(c1)COC2)c1cccc(N2CCOC2=O)c1 (configuration not stated) | -0.257
10 | Cc1nc(CN(C)S(=O)(=O)c2ccc(F)cc2Br)no1 | 14.6
11 | COC(=O)c1ccc(Cn2cccc(C(F)(F)F)c2=O)s1 | -2.65
12 | CCc1noc(C(C)N2CCN(Cc3noc(C4CC4)n3)CC2)n1 (configuration not stated) | -8.62
13 | Cc1noc(C)c1CCCNC(=O)Nc1cccc([S+](C)[O-])c1 (configuration not stated) | -3.63
14 | CC(C(=O)Nc1cccc(C(F)(F)F)c1)N(C)CCN1CCOCC1 (configuration not stated) | -8.82
15 | Cc1ccc(S(=O)(=O)N(C)CC(C)O)c(F)c1 (configuration not stated) | 21.4
16 | COC(=O)c1ccc(NC2CCN(CC(F)(F)F)C2=O)cc1C (configuration not stated) | 26.2
17 | CCc1nc(CN2CCCN(C(=O)c3ccccc3)CC2)cs1 | -1.48
18 | CC(NC(=O)CCNC(=O)c1ccoc1)c1ccccc1 (configuration not stated) | -7.29
19 | Cc1nn(-c2ccccc2)c(C)c1CNC(=O)NC1CC1 | -3.17
20 | Cc1nnc(NC(=O)N2CCC(N3CCCCC3)CC2)s1 | -8.18
21 | NC(=O)CSc1ccccc1NCc1nc(C2CC2)no1 | 15
22 | COc1ccc(OC)c(-c2csc(-c3cccc(C(=O)O)c3)n2)c1 | -16.7
23 | COCCNC(=O)NCC(C)c1ccccc1OC (configuration not stated) | -8.45
24 | CCc1nc(CN2CCCN(C(=O)c3cccn3C)CC2)cs1 | 2.1
25 | O=C(Cn1cncn1)NCC1CCN(Cc2ccccc2Cl)CC1 | 2.75
26 | CS(=O)(=O)c1cccc(S(=O)(=O)NC(=O)c2cscn2)c1 | -4.27

Row | Compound | cytotoxicity at 70.5 h [%]
27 | O=C(CCC(=O)N1CCOCC1c1ccccc1)c1cccs1 (configuration not stated) | -2.2
28 | O=C(NS(=O)(=O)c1cccc(C(F)(F)F)c1)c1cnsn1 | -5.69
29 | COc1cc2c(nn1)CCN(Cc1noc(-c3ccccc3)n1)C2 | 2.93
30 | COc1cc2c(nn1)CCN(Cc1nc(Cc3ccccc3)no1)C2 | 2.14
31 | CNC(=O)c1ccc(NC2CCN(CC(F)(F)F)C2=O)cc1Cl (configuration not stated) | -7.41
32 | COc1c(CNCc2ccccc2CN2CCOCC2)c(C)nn1C | -7.68
33 | CC(=O)N(Cc1ncc(C)o1)C1CCN(CCOc2ccccc2)C1 (configuration not stated) | 17.4
34 | Cc1nc(CN(C)Cc2cc3c(cc2OC(F)F)OCO3)cs1 | -7.91
35 | Cc1ccoc1CNCc1nnc2n1CC(C(F)(F)F)CC2 (configuration not stated) | -12.1
36 | CCn1ccnc1CN1CCC(N(Cc2ncc(C)o2)C(C)=O)C1 (configuration not stated) | 4.91
37 | CC(=O)N(Cc1ncc(C)o1)C1CCN(Cc2ccc(F)c(F)c2)C1 (configuration not stated) | -4.3
38 | CC(=O)N(Cc1ncc(C)o1)C1CCN(Cc2nnc(C3CC3)o2)C1 (configuration not stated) | 10
39 | O=C(NCc1cccnc1-n1cncn1)c1cncc(Br)c1 | 0.0598
40 | CCSc1cc(C(=O)NC2CCN(C(=O)c3ccncc3)CC2)ccn1 | -0.0904
41 | CCCN1CCC(NC(=O)c2ccnc(SCC)c2)CC1 | -0.521
42 | CCn1cc(NC(=O)C2CCN(Cc3nc(C)c(C)o3)CC2)cn1 | -11.4
43 | CN(C)c1cc(C(=O)NCc2cccnc2-n2cncn2)ccn1 | -16.1
44 | Cc1ccc(CNC(CN2CCN(C)CC2)c2ccccc2)cc1C (configuration not stated) | 35.8
45 | CCCNC(=O)CCNc1cncc(-n2nc(C)cc2C)n1 | -4.63
46 | Fc1ccc(CNCc2nnc3n2CC(C(F)(F)F)CC3)c(F)c1 (configuration not stated) | -7.11
47 | Cc1cccc2nc(CNC(=O)N3CCC(N4CC=CC4)C3)cn12 (configuration not stated) | -14.4
48 | CC(=O)N(Cc1ncc(C)o1)C1CCN(CCc2ccncc2)C1 (configuration not stated) | 7.37
49 | O=S(=O)(c1ccc(F)cc1F)N1CCCCC1c1nnc2n1CCCC2 (configuration not stated) | -12.7
50 | Cc1cnn(CC2CCCCN2C(=O)CCCc2nc(C)no2)c1 (configuration not stated) | -5.29
51 | Cc1ccc(C2CCCN2S(=O)(=O)N(C)Cc2cnccn2)o1 (configuration not stated) | -3.89
52 | Cc1nc(CN2CCN(C(=O)CCC(=O)c3ccccc3)CC2)no1 | 12.6

Row | Compound | cytotoxicity at 70.5 h [%]
53 | CCn1c(C)nnc1CN(C)C1CCN(Cc2c(C)noc2C)C1 (configuration not stated) | -4.05
54 | CCn1c(C)nnc1CN(C)C1CCN(Cc2ccon2)C1 (configuration not stated) | -1.86
55 | Cc1ccccc1OCCSc1nnc(CC2CCS(=O)(=O)C2)n1C (configuration not stated) | -7.8
56 | O=C(NCCN1CCOCC1)c1cc(Cl)c2c(c1)OCCCO2 | -5.1
57 | Cc1cccc(Nc2c(C#N)c(=O)n(C)c(=O)n2C)c1 | -3.97
58 | COc1ccc(CNC(=O)C2=NN(c3ccc(C)cc3)C(=O)CN2)cc1 | -5.36
59 | Cc1noc(CN2CCN(CCS(C)(=O)=O)CC2)n1 | -2.73
60 | CC(C)N1CC(C(=O)NC(C)(C)CNC(=O)OC(C)(C)C)CC1=O (configuration not stated) | -3.84
61 | CC1CCCCN1C(=O)Cn1cc(I)cn1 (configuration not stated) | -1.82
62 | CC1CCN(C(=O)Cn2cc(I)cn2)CC1 | 0.739
63 | CC(C)Cc1ccc(C(=O)Cn2cnnc2[S+](C)[O-])cc1 (configuration not stated) | -3.94
64 | C[S+]([O-])c1nncn1CC(=O)c1cccc(Br)c1 (configuration not stated) | -3.69
65 | CC(NC(=O)Nc1ccc(OC2CCCC2)cc1)c1nc[nH]n1 (configuration not stated) | 12.8
66 | CC(NC(=O)Nc1cc(F)cc(F)c1)c1nc[nH]n1 (configuration not stated) | -5.9
67 | CC(C)c1nn(C)c(N(C)C)c1CNCc1cccnc1 | -1.06
68 | COc1ccc(NC(=O)NC(C)c2nc[nH]n2)cc1Cl (configuration not stated) | -2.57
69 | Cc1noc(CN2CCN(CCO)CC2)n1 | -3.7
70 | CCC(C)(NCC(=O)OC)c1nc(C)cs1 (configuration not stated) | -1.12
71 | CC(C)(C)OC(=O)NCC1CCCCN1Cc1cccc(C(N)=O)c1 (configuration not stated) | 1.21
72 | Cc1nn(C)c(N(C)C)c1CNC(C)c1cccnc1 (configuration not stated) | -6.25
73 | COc1ccccc1C(CNC(=O)NCc1cc[nH]n1)N1CCCC1 (configuration not stated) | 12.7
74 | Cc1cnn(CC2CCCN2Cc2cc(=O)n3cc(C)ccc3n2)c1 (configuration not stated) | -1.28
75 | CN(C)C(CNC(=O)NCc1cc[nH]n1)c1ccco1 (configuration not stated) | 0.0309
76 | Clc1cccc(CNC2CCN(CCc3ccncc3)CC2)c1 | 0.526
77 | CC(C)n1c(C2CCCN(CC(=O)NC3CC3)C2)nc2ccccc21 (configuration not stated) | -1.26
78 | CC(NCc1ccc(-c2ccc(F)cc2)o1)c1nnc2n1CCC2 (configuration not stated) | -9.83

Row | Compound | cytotoxicity at 70.5 h [%]
79 | Cc1cc(NC(=O)c2nc(N3CCCC3)ncc2Cl)ccc1Br | -5.96
80 | NCC1(c2cccc(F)c2)CCOCC1 | 19.1
81 | CCN(CC)c1ccc(NC(=O)N2CCc3sccc3C2)cn1 | -2.76
82 | O=C(Nc1ccc(N2CCOCC2)nc1)N1CCc2sccc2C1 | 46.1
83 | COc1cc(CN(C)C(=O)NCCNC(=O)C2CC2)ccc1SC | -16
84 | CCN(CCCNC(=O)c1ccc(C)[nH]c1=O)S(C)(=O)=O | -0.303
85 | O=C(c1cc2c([nH]c1=O)CCC2)N1CCCC1c1ccccc1 (configuration not stated) | -4.54
86 | O=C(c1cc2c([nH]c1=O)CCC2)N1CCCC1c1ccccn1 (configuration not stated) | -2.83
87 | COCCN(CCC#N)S(=O)(=O)c1ccc(F)cc1F | 0.44
88 | CCc1nc(CCNC(=O)NC2CCN(C(C)C)C2)sc1C (configuration not stated) | -3.64
89 | CSc1cc2c(cc1NC(=O)NCCn1ccnc1)OCCO2 | -3
90 | O=C(Nc1cc(Cl)ccn1)c1nc(N2CCCC2)ncc1Cl | -2.78
91 | CCCn1nc2c(cc1=O)CN(Cc1c(C)noc1C)CC2 | -6.66
92 | CCC(C)(CO)NC(=O)Nc1cc2c(cc1SC)OCCO2 (configuration not stated) | -1.22
93 | CC(C(=O)Nc1ccnn1C(C)C)N1CCN(Cc2ccon2)CC1 (configuration not stated) | 1.23
94 | O=C(Nc1ccc(CC(=O)N2CCSCC2)cc1)NC1CC1 | 14.5
95 | CN1CCC(N(C)C(=O)CSc2ccc(F)c(F)c2)C1=O (configuration not stated) | -2.06
96 | CC(C)Nc1ncccc1C(=O)NCc1ccnn1C | 6.47
97 | CC(C)Nc1ncccc1C(=O)NCc1cnc(N(C)C)n1C | -14.4
98 | CCN(Cc1cccc(-c2ccncc2)c1)S(N)(=O)=O | -2.79
99 | Cc1cc(NCC2(O)CCOCC2)c2ccccc2n1 | -4.68
100 | CS(=O)(=O)NCCN1CCOC2(CCc3ccccc32)C1 (configuration not stated) | -7.71
101 | OC1(CNc2cc(C(F)(F)F)nc3ccccc23)CCOCC1 | -4.81
102 | Cc1nn(C)c(N(C)C)c1CNCc1cccc(CN(C)C)c1 | -3.97
